Here are results for three substances from patent US20080200564A1, “Copolymers Based on N-Vinylpyrrolidone and Branched Aliphatic Carbonxylic Acids, and Their Use as Solubilizers” (BASF Aktiengesellschaft, priority 2005, published 2008).

A short description of the data set: Preparation of solubilizates: content of solubilized active ingredient, measured photometrically. It counts as physicochemical. The following applies: pH 7. How it is done:
2 g of the copolymer were weighed into a beaker. Then, one medicament in each case was weighed into the mixture as follows in order to obtain a supersaturated solution. (If the weighed-in mass dissolved in the medium, the initial weight was increased until a sediment formed). […] Phosphate buffer pH 7.0 was then added until solubilizer and phosphate buffer were present in the weight ratio 1:9. […] There then followed a resting time of at least one hour. Following filtration of the mixture, it was measured photometrically and the content of active ingredient was determined.
Turning to “copolymers of N-vinylpyrrolidone/N-vinylcaprolactam/VEOVA 10 (weight ratio 70/20/10) [Example 4]”, the “content of solubilized active ingredient, Carbamazepine” value worked out at 0.21 g/100 ml and the “content of solubilized active ingredient, Piroxicam” value was found to be 0.50 g/100 ml.
The corresponding values for “copolymers of N-vinylpyrrolidone/VEOVA 9 (weight ratio 80/20) [Example 2]” are 0.17 g/100 ml and 0.54 g/100 ml.
The corresponding values for “copolymers of N-vinylpyrrolidone/VEOVA 9 (weight ratio 90/10) [Example 3]” are 0.19 g/100 ml and 0.48 g/100 ml.
